# Literature values in patent US7939721B2, “Cropping systems for managing weeds” (Monsanto Technology LLC, priority 2006, dated 2011).
# Read-outs that look alike come from different tables or passages of the source.
# Test system: soybean plants transformed with dicamba monooxygenase (DMO)-encoding polynucleotide constructs
# Settings: cited from earlier work
structure (smiles),measurement,setting,value
"COc1c(Cl)ccc(Cl)c1C(=O)O [dicamba, 3,6-dichloro-o-anisic acid]",injury,"18× application rate of 10,080 g/ha (9 lb/acre)",less than 20%
same,injury,approximately 2× rate of application of 1122 g/ha,less than 2%
same,injury,"early pre-emergence application, 9× the labeled application rate (5,040 g/ha, 4.5 lb/acre)",less than 10%
